Data taken from PubChem BioAssay AID1845212 (Molecular Pharmacology Branch, DTP, NCI, 2023).
“And” between values parts separate entries of the source, which are not always exact repeats. Identical values can stand only once. The source made the active and inactive calls. The calls were made as follows: active = viability on the fitted dose curve at most 10% of control; inactive = the rest.

Tested on: NCI-H719 tumor spheroids, viability
Assay: Anticancer human tumor NCI-H719 cell line growth inhibition;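 as to IC50: spheroids exposed to compounds for seven days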;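 as to viability, T/C: spheroids exposed to compounds for seven days; percent viability relative to DMSO vehicle control as 100%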
Details: spheroids with HUVEC and MSC; for viability, T/C: stronger effect = lower value
Outline: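 Complex spheroids of malignant cells with endothelial cells and mesenchymal stem cells; agents alone or combined, from near clinical Cmax (or 10 microM if unknown) down in half-log steps, 0.25% DMSO final.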

With `CC(C)n1c(=O)n(C)c2cnc3cc(F)c(-c4ccc(OCCCN5CCCCC5)nc4)cc3c21` + Cn1nnc2c(C(N)=O)ncn2c1=O the IC50 (curve of first compound, second compound 1 µM) was greater than 10 µM, the IC50 (curve of first compound, second compound 3.16 µM) was greater than 10 µM and the IC50 (curve of first compound, second compound 10 µM) was greater than 10 µM. It also gave an IC50 (curve of first compound, second compound 31.6 µM) greater than 10 µM, an IC50 (curve of first compound, second compound 100 µM) greater than 10 µM and a viability, T/C (second compound 1 µM, first compound 0.0316 µM) of 94.3%. The viability, T/C (second compound 1 µM, first compound 0.1 µM) was 107%, the outcome (second compound 1 µM, first compound 0.316 µM) was “inactive” and the viability, T/C (second compound 1 µM, first compound 1 µM) was 79.8%. For the same compound, the viability, T/C (second compound 1 µM, first compound 3.16 µM) was 139%, the viability, T/C (second compound 1 µM, first compound 10 µM) was 95.2% and the viability, T/C (second compound 3.16 µM, first compound 0.0316 µM) was 89.4%. The viability, T/C (second compound 3.16 µM, first compound 0.1 µM) was 109%, the viability, T/C (second compound 3.16 µM, first compound 0.316 µM) was 111% and the viability, T/C (second compound 3.16 µM, first compound 1 µM) was 87.8%. The viability, T/C (second compound 3.16 µM, first compound 3.16 µM) was 148%, the viability, T/C (second compound 3.16 µM, first compound 10 µM) was 116% and the viability, T/C (second compound 10 µM, first compound 0.0316 µM) was 109%. For the same compound, the viability, T/C (second compound 10 µM, first compound 0.1 µM) was 104%, the viability, T/C (second compound 10 µM, first compound 0.316 µM) was 103% and the viability, T/C (second compound 10 µM, first compound 1 µM) was 89.2%. The viability, T/C (second compound 10 µM, first compound 3.16 µM) was 141%, the viability, T/C (second compound 10 µM, first compound 10 µM) was 112% and the viability, T/C (second compound 31.6 µM, first compound 0.0316 µM) was 119%. It also gave a viability, T/C (second compound 31.6 µM, first compound 0.1 µM) of 118%, a viability, T/C (second compound 31.6 µM, first compound 0.316 µM) of 114% and a viability, T/C (second compound 31.6 µM, first compound 1 µM) of 97.2%. It also gave a viability, T/C (second compound 31.6 µM, first compound 3.16 µM) of 110%, a viability, T/C (second compound 31.6 µM, first compound 10 µM) of 94.4% and a viability, T/C (second compound 100 µM, first compound 0.0316 µM) of 104%. The viability, T/C (second compound 100 µM, first compound 0.1 µM) was 86.8%, the viability, T/C (second compound 100 µM, first compound 0.316 µM) was 83.7% and the viability, T/C (second compound 100 µM, first compound 1 µM) was 74.6%. It also gave a viability, T/C (second compound 100 µM, first compound 3.16 µM) of 82.5% and a viability, T/C (second compound 100 µM, first compound 10 µM) of 68.5%.
With `O=C(c1cc(Cc2n[nH]c(=O)c3ccccc23)ccc1F)N1CCN(C(=O)C2CC2)CC1` + CC[C@@]1(O)C(=O)OCc2c1cc1n(c2=O)Cc2cc3c(CN(C)C)c(O)ccc3nc2-1 the IC50 (curve of first compound, second compound 0.003 µM) was less than 0.0949 µM, the IC50 (curve of first compound, second compound 0.00949 µM) was less than 0.0949 µM and the IC50 (curve of first compound, second compound 0.03 µM) was less than 0.0949 µM. The IC50 (curve of first compound, second compound 0.0949 µM) was less than 0.0949 µM, the IC50 (curve of first compound, second compound 0.3 µM) was less than 0.0949 µM and the viability, T/C (second compound 0.003 µM, first compound 0.0949 µM) was 8.96%. It also gave a viability, T/C (second compound 0.003 µM, first compound 0.3 µM) of 7.42%, a viability, T/C (second compound 0.003 µM, first compound 0.949 µM) of 6.71% and a viability, T/C (second compound 0.003 µM, first compound 3 µM) of 6.81%. The viability, T/C (second compound 0.003 µM, first compound 9.49 µM) was 5.81%, the viability, T/C (second compound 0.003 µM, first compound 30 µM) was 4.97% and the viability, T/C (second compound 0.00949 µM, first compound 0.0949 µM) was 6.26%. It also gave a viability, T/C (second compound 0.00949 µM, first compound 0.3 µM) of 5.9%, a viability, T/C (second compound 0.00949 µM, first compound 0.949 µM) of 6.11% and a viability, T/C (second compound 0.00949 µM, first compound 3 µM) of 5.87%. It also gave a viability, T/C (second compound 0.00949 µM, first compound 9.49 µM) of 5.83%, a viability, T/C (second compound 0.00949 µM, first compound 30 µM) of 5.35% and a viability, T/C (second compound 0.03 µM, first compound 0.0949 µM) of 5.59%. For the same compound, the viability, T/C (second compound 0.03 µM, first compound 0.3 µM) was 5.66%, the viability, T/C (second compound 0.03 µM, first compound 0.949 µM) was 6.11% and the viability, T/C (second compound 0.03 µM, first compound 3 µM) was 5.5%. The viability, T/C (second compound 0.03 µM, first compound 9.49 µM) was 5.9%, the viability, T/C (second compound 0.03 µM, first compound 30 µM) was 5.66% and the viability, T/C (second compound 0.0949 µM, first compound 0.0949 µM) was 5.78%. For the same compound, the viability, T/C (second compound 0.0949 µM, first compound 0.3 µM) was 5.76%, the viability, T/C (second compound 0.0949 µM, first compound 0.949 µM) was 5.69% and the viability, T/C (second compound 0.0949 µM, first compound 3 µM) was 5.69%. The viability, T/C (second compound 0.0949 µM, first compound 9.49 µM) was 5.97%, the viability, T/C (second compound 0.0949 µM, first compound 30 µM) was 5.61% and the viability, T/C (second compound 0.3 µM, first compound 0.0949 µM) was 5.43%. It also gave a viability, T/C (second compound 0.3 µM, first compound 0.3 µM) of 5.79%, a viability, T/C (second compound 0.3 µM, first compound 0.949 µM) of 6.36% and a viability, T/C (second compound 0.3 µM, first compound 3 µM) of 5.43%. It also gave a viability, T/C (second compound 0.3 µM, first compound 9.49 µM) of 5.25% and a viability, T/C (second compound 0.3 µM, first compound 30 µM) of 4.62%.
With `Cn1ncnc1[C@H]1c2n[nH]c(=O)c3cc(F)cc(c23)N[C@@H]1c1ccc(F)cc1` the viability, T/C (compound 0.00949 µM) was 14.8% and 59.6% and 24.1%, the viability, T/C (compound 0.03 µM) was 8.09% and 8.06% and 12.8% and the viability, T/C (compound 0.0949 µM) was 6.33% and 7.52% and 10%. The viability, T/C (compound 0.3 µM) was 6.84% and 6.92% and 9.12%, the viability, T/C (compound 0.949 µM) was 5.82% and 8.51% and 7.74% and the viability, T/C (compound 3 µM) was 6.37% and 7.94% and 7.04%. For the same compound, the IC50 (curve of compound) was < 0.00949 µM and 0.0118 µM.
